The source made the active and inactive calls. How the calls were made is not given here.

Muscarinic acetylcholine receptor M4 (Homo sapiens), sequence (P08173 whole entry, looked up): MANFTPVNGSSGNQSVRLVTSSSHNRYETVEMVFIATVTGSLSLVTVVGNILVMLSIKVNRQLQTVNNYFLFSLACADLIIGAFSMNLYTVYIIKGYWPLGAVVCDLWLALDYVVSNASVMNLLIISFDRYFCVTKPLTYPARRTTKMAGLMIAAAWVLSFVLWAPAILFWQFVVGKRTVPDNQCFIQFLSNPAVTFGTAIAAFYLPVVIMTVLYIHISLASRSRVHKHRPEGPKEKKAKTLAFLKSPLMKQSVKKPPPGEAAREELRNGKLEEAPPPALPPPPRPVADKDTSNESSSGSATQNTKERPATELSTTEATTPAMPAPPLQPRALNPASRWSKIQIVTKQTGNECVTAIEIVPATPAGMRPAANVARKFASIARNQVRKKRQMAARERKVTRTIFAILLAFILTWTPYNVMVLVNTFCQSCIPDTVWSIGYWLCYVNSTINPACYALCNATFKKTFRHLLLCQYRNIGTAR

The first experiment concerns the target Muscarinic acetylcholine receptor M4 (Homo sapiens) (UniProt P08173). Nature of the experiment: human M4 receptor positive allosteric modulators, SAR follow-up, cell-based, calcium mobilization (AID 623938). The following applies: hM4 cells, PAM with EC20 ACh.
On to `Cc1nc2sc(C(=O)NC(C)c3ccncc3)c(N)c2c(C)c1Cl` (centres undefined), for which the 50% effective concentration (EC50) is 600 nM.

For `Cc1nc2sc(C(=O)NC(C)C)c(N)c2c(C)c1Cl`, the EC50 was 183 nM.

Regarding `COc1ccc(C)c2sc(NC(=O)c3ccncc3)nc12`, the concentration for a half-maximal effect (EC50) is 1400 nM.

Regarding `COc1ccc(CNC(=O)c2sc3nc(C)c(Cl)c(C)c3c2N)cc1`, the half-maximal effective concentration (EC50) was 89 nM.

Turning to `COc1ccc(C)c2sc(NC(=O)C3CCCCC3)nc12`, the concentration for a half-maximal effect (EC50) is over 10000 nM.

Take `COc1ccc(C)c2sc(C(=O)NC3CC3)nc12`: the EC50 is over 10000 nM.

`Cc1nc2sc(C(=O)NCCc3cccnc3)c(N)c2c(C)c1Cl`: the outcome was inactive.

As to `Cc1nc2sc(C(=O)NCc3ncccn3)c(N)c2c(C)c1Cl`, the EC50 was 1070 nM.

On to `Cc1nc2sc(C(=O)NC(C)c3cccnc3)c(N)c2c(C)c1Cl` (centres undefined), for which the 50% effective concentration (EC50) is 601 nM.

On to `COc1ccc(C)c2sc(NC(=O)NC3CCCC3)nc12`, for which the EC50 was 3580 nM.

As to `COc1ccc(C)c2sc(NC(=O)C3CC3C)nc12` (centres undefined), the EC50 is over 10000 nM.

For the molecule `COc1ccc(C)c2sc(NC(=O)N3CCCC3)nc12`, the EC50 was over 10000 nM.

`COc1cccc2sc(NC(=O)c3ccncc3)nc12`: the 50% effective concentration (EC50) is 2300 nM.

As for `Cc1nc2sc(C(=O)NCc3ccc4c(c3)OCO4)c(N)c2c(C)c1Cl`, the EC50 was 170 nM.

`CCCC(=O)Nc1nc2c(OC)ccc(C)c2s1`: the half-maximal effective concentration (EC50) is over 10000 nM.

In the case of `CCOc1ccc(NC(=O)c2sc3nc(C)c(Cl)c(C)c3c2N)cc1`, the outcome was inactive.

Regarding `COc1ccc(C)c2sc(NC(=O)C3CCCOC3)nc12` (centres undefined), the EC50 is over 10000 nM.

On to `Cc1nc2sc(C(=O)Nc3ccccc3N(C)C)c(N)c2c(C)c1Cl`, for which the outcome was inactive.

With `Cc1nc2sc(C(=O)NCc3cccnc3)c(N)c2c(C)c1Cl`, the half-maximal effective concentration (EC50) is 328 nM.

Turning to `Cc1nc2sc(C(=O)NCc3ccc(F)c(F)c3)c(N)c2c(C)c1Cl`, the outcome is “active; potentiator”.

For the molecule `Cc1nc2sc(C(=O)NC3CCOC3)c(N)c2c(C)c1Cl` (centres undefined), the EC50 is 29 nM.

For `COc1ccc(NC(=O)c2sc3nc(C)c(Cl)c(C)c3c2N)cc1`, the outcome is “active; potentiator”.

Take `Cc1nc2sc(C(=O)NC3CC3)c(N)c2c(C)c1Cl`: the EC50 was 21 nM.

For the molecule `Cc1nc2sc(C(=O)NCc3ccccc3)c(N)c2c(C)c1Cl`, the concentration giving a half-maximal response (EC50) is 133 nM.

As for `Cc1nc2sc(C(=O)NCCc3ccncc3)c(N)c2c(C)c1Cl`, the concentration for a half-maximal effect (EC50) is 211 nM.

Take `Cc1nc2sc(C(=O)NCc3ccnnc3)c(N)c2c(C)c1Cl`: the 50% effective concentration (EC50) was 222 nM.

Consider `Cc1nc2sc(C(=O)NC(C)c3ccccn3)c(N)c2c(C)c1Cl` (centres undefined), for which the EC50 was 1410 nM.

`Cc1cc(CNC(=O)c2sc3nc(C)c(Cl)c(C)c3c2N)ccn1`: the EC50 is 57 nM.

`COc1ccc(C)c2sc(NC(=O)C3CCC3)nc12`: the concentration for a half-maximal effect (EC50) is over 10000 nM.

Turning to `Cc1nc2sc(C(=O)NCC3CCCCC3)c(N)c2c(C)c1Cl`, the EC50 is 1090 nM.

Take `Cc1nc2sc(C(=O)NCCc3ccccn3)c(N)c2c(C)c1Cl`: the EC50 was 686 nM.

Consider `COc1ccc(C)c2sc(NC(=O)c3cnccn3)nc12`, for which the half-maximal effective concentration (EC50) was 745 nM.

`COCC(=O)Nc1nc2c(OC)ccc(C)c2s1`: the concentration giving a half-maximal response (EC50) was over 10000 nM.

For the molecule `Cc1nc2sc(C(=O)NCc3ccncc3)c(N)c2c(C)c1Cl`, the EC50 is 37 nM.

Regarding `Cc1nc2sc(C(=O)NCCC3CCCN3C)c(N)c2c(C)c1Cl` (centres undefined), the EC50 is 596 nM.

For the molecule `COc1ccc(C)c2sc(NC(=O)C(C)C)nc12`, the concentration giving a half-maximal response (EC50) was over 10000 nM.

With `Cc1nc2sc(C(=O)NCc3ccccc3Cl)c(N)c2c(C)c1Cl`, the EC50 was 154 nM.

With `Cc1nc2sc(C(=O)NCc3ccc(C(F)(F)F)cc3)c(N)c2c(C)c1Cl`, the EC50 is 1140 nM.

`COc1ccc(C)c2sc(NC(=O)c3ccco3)nc12`: the EC50 is 1430 nM.

On to `Cc1nc2sc(C(=O)NCc3ccccn3)c(N)c2c(C)c1Cl`, for which the half-maximal effective concentration (EC50) was 293 nM.

In the case of `Cc1nc2sc(C(=O)NC3CCCCC3)c(N)c2c(C)c1Cl`, the half-maximal effective concentration (EC50) was 188 nM.

Take `Cc1nc2sc(C(=O)NC3COC3)c(N)c2c(C)c1Cl`: the concentration giving a half-maximal response (EC50) is 906 nM.

Regarding `COc1ccc(C)c2sc(NC(=O)c3cccnc3)nc12`, the concentration for a half-maximal effect (EC50) was 2500 nM.

On to `COc1ccc(C)c2sc(NC(=O)NC3CC3)nc12`, for which the EC50 is over 10000 nM.

Take `Cc1nc2sc(C(=O)NCc3ccncn3)c(N)c2c(C)c1Cl`: the concentration for a half-maximal effect (EC50) is 173 nM.

In the case of `Cc1nc2sc(C(=O)NCc3ccc(Cl)cc3)c(N)c2c(C)c1Cl`, the outcome is “active; potentiator”.

Regarding `COc1ccc(C)c2sc(NC(=O)C3CC3)nc12`, the EC50 is over 10000 nM.

In the case of `Cc1nc2sc(C(=O)NC(C)(C)C)c(N)c2c(C)c1Cl`, the EC50 was 372 nM.

As for `COCCCNC(=O)c1sc2nc(C)c(Cl)c(C)c2c1N`, the EC50 was 425 nM.

Turning to `Cc1ccc(CNC(=O)c2sc3nc(C)c(Cl)c(C)c3c2N)cc1`, the EC50 is 132 nM.

With `COc1ccc(C)c2sc(NC(=O)C3=COCCO3)nc12`, the EC50 is 1900 nM.

In the case of `COc1ccc(C)c2sc(NC(=O)C3CCCC3)nc12`, the concentration for a half-maximal effect (EC50) is over 10000 nM.

`Cc1nc2sc(C(=O)NCc3cnccn3)c(N)c2c(C)c1Cl`: the EC50 is 250 nM.

For `Cc1nc2sc(C(=O)NCc3nccs3)c(N)c2c(C)c1Cl`, the EC50 was 174 nM.

Take `Cc1nc2sc(C(=O)NC3CCOCC3)c(N)c2c(C)c1Cl`: the half-maximal effective concentration (EC50) was 220 nM.

`Cc1nc2sc(C(=O)NCc3cccc(F)c3F)c(N)c2c(C)c1Cl`: the half-maximal effective concentration (EC50) was 120 nM.

Still in this experiment, the particulars now being: hM4 cells, PAM with EC20 ACh, active compounds read high.
Turning to `COc1ccc(C)c2sc(NS(=O)(=O)c3ccc4occc4c3)nc12`, the “% ACh max” value is “inactive”.

For `COc1ccc(C)c2sc(NC(=O)CCc3ccccc3)nc12`, the “% ACh max” value is “inactive”.

`CCCCC1CC1C(=O)Nc1nc2c(OC)ccc(C)c2s1` (centres undefined): the “% ACh max” value is “inactive”.

As for `COc1ccc(C)c2sc(C(=O)Nc3ccc(C)nc3)nc12`, the “% ACh max” value is “inactive”.

For the molecule `COc1ccc(C)c2sc(NS(=O)(=O)c3ccc(C(F)(F)F)cc3)nc12`, the “% ACh max” value is “inactive”.

In the case of `COc1ccc(C)c2sc(NC(=O)NC3CCC3)nc12`, the “% ACh max” value is “inactive”.

For `COc1ccc(C)c2sc(NS(=O)(=O)c3cccc(Cl)c3)nc12`, the “% ACh max” value is “inactive”.

As to `COc1ccc(C)c2sc(C(=O)NC3COC3)nc12`, the % ACh max is 36.4%.

For the molecule `COc1ccc2nc(NC(=O)c3ccncc3)sc2n1`, the “% ACh max” value was “inactive”.

As for `COc1ccc(C)c2sc(NCC3CC3)nc12`, the “% ACh max” value was “inactive”.

On to `COc1ccc(C)c2sc(NC(=O)N3CCCCC3)nc12`, for which the “% ACh max” value is “inactive”.

Take `COc1ccc(C)c2sc(C(=O)NC3CCCCC3)nc12`: the “% ACh max” value is “inactive”.

In the case of `COc1ccc(C)c2sc(NC(=O)CC(C)(C)C)nc12`, the “% ACh max” value is “inactive”.

On to `COc1ccc(C)c2sc(NC(=O)c3ccc(F)cc3F)nc12`, for which the “% ACh max” value was “inactive”.

Regarding `COc1ccc(C)c2sc(NC(=O)c3ccc(F)cc3)nc12`, the “% ACh max” value was “inactive”.

For `COc1ccc(C)c2sc(NC(=O)C3=C(C)OCCO3)nc12`, the “% ACh max” value is “inactive”.

As to `O=C(Nc1nc2cccnc2s1)C1CCC1`, the “% ACh max” value is “inactive”.

For the molecule `COc1ccc(C)c2sc(NS(=O)(=O)c3ccc(F)cc3F)nc12`, the “% ACh max” value is “inactive”.

Consider `O=C(Nc1nc2cccnc2s1)C1CCCC1`, for which the “% ACh max” value is “inactive”.

As to `COc1ccc(C)c2sc(NC(=O)c3cc(F)cc(F)c3)nc12`, the “% ACh max” value is “inactive”.

As for `COc1ccc(C)c2sc(C(=O)Nc3ccncc3)nc12`, the “% ACh max” value was “inactive”.

As to `O=C(Nc1nc2cccnc2s1)c1cnccn1`, the “% ACh max” value was “inactive”.

For the molecule `COc1ccc(C)c2sc(NS(=O)(=O)c3cc(C)ccn3)nc12`, the “% ACh max” value is “inactive”.

As for `COc1ccc(C)c2sc(NC(=O)c3c(F)cccc3F)nc12`, the “% ACh max” value was “inactive”.

With `COc1ccc(C)c2sc(NS(=O)(=O)c3cccc(C)c3)nc12`, the “% ACh max” value was “inactive”.

Regarding `COc1ccc(C)c2sc(NC(=O)Nc3ccncc3)nc12`, the “% ACh max” value is “inactive”.

On to `COc1ccc(C)c2sc(NC(=O)c3ccc(F)c(F)c3)nc12`, for which the “% ACh max” value was “inactive”.

`COc1ccc(C)c2sc(NC(=O)c3ccccn3)nc12`: the “% ACh max” value was “inactive”.

Regarding `COc1ccc(C)c2sc(NS(=O)(=O)c3cnn(C)c3)nc12`, the “% ACh max” value is “inactive”.

With `COc1ccc(C)c2sc(C(=O)NCc3ccncc3)nc12`, the “% ACh max” value is “inactive”.

For the molecule `COc1ccc(C)c2sc(NC(C)=O)nc12`, the “% ACh max” value was “inactive”.

On to `Clc1cccc(Nc2n[nH]c3ccccc23)c1`, for which the “% ACh max” value is “inactive”.

As for `COc1ccc(C)c2sc(C(=O)NC3CCCC3)nc12`, the “% ACh max” value is “inactive”.

On to `COc1ccc(C)c2sc(NC(=O)c3ccc(C)cc3)nc12`, for which the “% ACh max” value is “inactive”.

As to `O=C(Nc1nc2cccnc2s1)c1cccnn1`, the “% ACh max” value was “inactive”.

Turning to `COc1ccc(C)c2sc(NC(=O)C3CCCCO3)nc12` (centres undefined), the % ACh max was 64.1%.

Take `COc1ccc(C)c2sc(NC(=O)NCc3ccncc3)nc12`: the “% ACh max” value was “inactive”.

As to `O=C(Nc1nc2ccccc2s1)C1CCCCO1` (centres undefined), the “% ACh max” value was “inactive”.

The values are drawn from PubChem BioAssay AID623938 (Vanderbilt Specialized Chemistry Center, 2012).
